Paper PMC8694192, “Synthesis and biological evaluation of new derivatives of thieno-thiazole and dihydrothiazolo-thiazole scaffolds integrated with a pyrazoline nucleus as anticancer and multi-targeting kinase inhibitors” (RSC Advances, 2021)
Converted amounts (≈) assume the structure as drawn. Like-named read-outs stand apart in the source and are kept apart here.

Legend:
E. coli RCMB 010052 [1] = experiment: MIC, two-fold serial dilution; details: Escherichia coli, RCMB010052, read-out: MIC E. coli RCMB 010052
C. albicans ATCC 10231 [2] = experiment: MIC, two-fold serial dilution; details: for MIC: Candida albicans, ATCC10231, read-out: MIC C. albicans ATCC 10231
S. typhi ATCC 14028 [3] = experiment: MIC, two-fold serial dilution; assay type: cell-based; details: Salmonella enterica, read-out: MIC S. typhi ATCC 14028
S. aureus 25923 [4] = experiment: Agar well diffusion, inhibition zone; assay type: cell-based
HepG-2 cells = experiment: In vitro cytotoxicity, MTT assay, HepG-2; details: Homo sapiens, HepG2, read-out: IC50 HepG-2
MCF-7 cells = experiment: In vitro cytotoxicity, MTT assay, MCF-7; details: Homo sapiens, MCF7, read-out: IC50 MCF-7
A. fumigatus RCMB 02568 [5] = experiment: MIC, two-fold serial dilution; details: for MIC: Aspergillus fumigatus, RCMB02568, read-out: MIC A. fumigatus RCMB 02568
P. aeruginosa [6] = experiment: Agar well diffusion, inhibition zone; assay type: cell-based; details: Pseudomonas aeruginosa, read-out: Mean diameter of inhibition zone (mean ± SEM) P. aeruginosa
E. faecalis [7] = experiment: MIC, two-fold serial dilution; details: Enterococcus faecalis, read-out: MIC E. faecalis
C. albicans ATCC 10231 [8] = experiment: Agar well diffusion, inhibition zone; assay type: cell-based; details: Candida albicans
S. pneumoniae 010010 [9] = experiment: MIC, two-fold serial dilution; details: for MIC: Streptococcus pneumoniae, 010010, read-out: MIC S. pneumoniae 010010
S. typhi ATCC 14028 [10] = experiment: Agar well diffusion, inhibition zone; assay type: cell-based; details: Salmonella enterica, read-out: Mean diameter of inhibition zone (mean ± SEM) S. typhi ATCC 14028
E. faecalis [11] = experiment: Agar well diffusion, inhibition zone; assay type: cell-based; details: Enterococcus faecalis, read-out: Mean diameter of inhibition zone (mean ± SEM) E. faecalis
A. fumigatus RCMB 02568 [12] = experiment: Agar well diffusion, inhibition zone; assay type: cell-based; details: Aspergillus fumigatus
S. pneumoniae 010010 [13] = experiment: Agar well diffusion, inhibition zone; assay type: cell-based
E. coli RCMB 010052 [14] = experiment: Agar well diffusion, inhibition zone; assay type: cell-based; details: Escherichia coli
P. aeruginosa [15] = experiment: MIC, two-fold serial dilution; details: for MIC: Pseudomonas aeruginosa, read-out: MIC P. aeruginosa
S. aureus 25923 [16] = experiment: MIC, two-fold serial dilution; details: Staphylococcus aureus, 25923, read-out: MIC S. aureus 25923
[17] = Staphylococcus aureus, 25923, read-out: Mean diameter of inhibition zone (mean ± SEM) S. aureus 25923
[18] = ATCC10231, read-out: Mean diameter of inhibition zone (mean ± SEM) C. albicans ATCC 10231
[19] = RCMB02568, read-out: Mean diameter of inhibition zone (mean ± SEM) A. fumigatus RCMB 02568
[20] = Streptococcus pneumoniae, 010010, read-out: Mean diameter of inhibition zone (mean ± SEM) S. pneumoniae 010010
[21] = RCMB010052, read-out: Mean diameter of inhibition zone (mean ± SEM) E. coli RCMB 010052

Structure (SMILES) | MIC (E. coli RCMB 010052 [1]) | MIC (C. albicans ATCC 10231 [2]) | MIC (S. typhi ATCC 14028 [3]) | zone of inhibition at 500 µg/mL (S. aureus 25923 [4]; [17]) | IC50 (HepG-2 cells) | IC50 (MCF-7 cells) | MIC (A. fumigatus RCMB 02568 [5]) | zone of inhibition at 500 µg/mL (P. aeruginosa [6]) | MIC (E. faecalis [7]) | zone of inhibition at 500 µg/mL (C. albicans ATCC 10231 [8]; [18]) | MIC (S. pneumoniae 010010 [9]) | zone of inhibition at 500 µg/mL (S. typhi ATCC 14028 [10]) | zone of inhibition at 500 µg/mL (E. faecalis [11]) | zone of inhibition at 500 µg/mL (A. fumigatus RCMB 02568 [12]; [19]) | zone of inhibition at 500 µg/mL (S. pneumoniae 010010 [13]; [20]) | melting point | zone of inhibition at 500 µg/mL (E. coli RCMB 010052 [14]; [21]) | MIC (P. aeruginosa [15]) | MIC (S. aureus 25923 [16]) | also measured
CCOC(=O)c1c(N)sc2sc(Nc3c(C)n(C)n(-c4ccccc4)c3=O)nc12 [Compound 3b, Ethyl 5-amino-2-((1,5-dimethyl-3-oxo-2-phenyl-2,3-dihydro-1H-pyrazol-4-yl)amino) thieno[3,2-d]thiazole-6-carboxylate] | 119 µM (≈ 51.1 µg/mL) | 189 µM (≈ 81.2 µg/mL) | 45.6 µM (≈ 19.6 µg/mL) | 19 ± 0.68 mm | 39.02 ± 0.02 µM | 36.77 ± 0.02 µM | 62.1 µM (≈ 26.7 µg/mL) | 17 ± 0.41 mm | 67.4 µM (≈ 29 µg/mL) | 11 ± 0.7 mm | 179 µM (≈ 76.7 µg/mL) | 23 ± 0.79 mm | 20 ± 0.24 mm | 21 ± 0.22 mm | 14 ± 0.84 mm | 285 to 287 °C | 15 ± 0.71 mm | 125 µM (≈ 53.6 µg/mL) | 79 µM (≈ 33.9 µg/mL) | 
Cc1c(Nc2nc3c(s2)sc(=S)n3-c2ccc(Cl)cc2)c(=O)n(-c2ccccc2)n1C [Compound 5d, 4-((4-(4-Chlorophenyl)-5-thioxo-4,5-dihydrothiazolo[4,5-d]thiazol-2-yl)amino)-1,5-dimethyl-2-phenyl-1H-pyrazol-3(2H)-one] | 118 µM (≈ 57.4 µg/mL) |  |  | 25 ± 0.13 mm | 81.5 ± 0.03 µM | 88.56 ± 0.01 µM |  | 13 ± 0.11 mm |  |  |  |  |  |  |  | 211 to 213 °C | 15 ± 0.04 mm | 180 µM (≈ 87.6 µg/mL) | 18.9 µM (≈ 9.17 µg/mL) | 
[H]/N=C(/N)N[C@H]1[C@H](O)[C@@H](O)[C@H](O[C@@H]2O[C@@H](C)[C@](O)(C=O)[C@H]2O[C@@H]2O[C@@H](CO)[C@H](O)[C@@H](O)[C@@H]2NC)[C@@H](N/C(N)=N\[H])[C@@H]1O [Streptomycin, reference compound] | 9.18 µM (≈ 5.34 µg/mL) |  | 47.1 µM (≈ 27.4 µg/mL) |  |  |  |  |  | 19.5 µM (≈ 11.3 µg/mL) |  | 65.3 µM (≈ 38 µg/mL) | 23 ± 0.92 mm |  |  |  |  |  | 68.2 µM (≈ 39.7 µg/mL) | 16.8 µM (≈ 9.74 µg/mL) | zone of inhibition at 500 µg/mL (S. aureus 25923 [4]; Staphylococcus aureus, 25923, well diffusion agar, 0.5 mg/mL, read-out: Mean diameter of inhibition zone (mean ± SEM) S. aureus 25923): 26 ± 0.45 mm; zone of inhibition at 500 µg/mL (P. aeruginosa [6]; well diffusion agar, 0.5 mg/mL): 20 ± 0.53 mm; zone of inhibition at 500 µg/mL (E. faecalis [11]; well diffusion agar, 0.5 mg/mL): 25 ± 0.38 mm; zone of inhibition at 500 µg/mL (S. pneumoniae 010010 [13]; Streptococcus pneumoniae, 010010, well diffusion agar, 0.5 mg/mL, read-out: Mean diameter of inhibition zone (mean ± SEM) S. pneumoniae 010010): 22 ± 0.81 mm; zone of inhibition at 500 µg/mL (E. coli RCMB 010052 [14]; RCMB010052, well diffusion agar, 0.5 mg/mL, read-out: Mean diameter of inhibition zone (mean ± SEM) E. coli RCMB 010052): 27 ± 0.56 mm
CCn1c(=S)sc2sc(Nc3c(C)n(C)n(-c4ccccc4)c3=O)nc21 [Compound 5b, 4-((4-Ethyl-5-thioxo-4,5-dihydrothiazolo[4,5-d]thiazol-2-yl)amino)-1,5-dimethyl-2-phenyl-1H-pyrazol-3(2H)-one] | 193 µM (≈ 78 µg/mL) | 185 µM (≈ 74.7 µg/mL) |  | 16 ± 0.88 mm | 48.04 ± 0.03 µM | 43.94 ± 0.02 µM |  | 18 ± 0.95 mm | 15.2 µM (≈ 6.13 µg/mL) | 12 ± 0.07 mm | 15.9 µM (≈ 6.4 µg/mL) |  | 27 ± 0.41 mm |  | 28 ± 0.12 mm | 183 to 185 °C | 10 ± 0.42 mm | 122 µM (≈ 49.1 µg/mL) | 135 µM (≈ 54.6 µg/mL) | 
Cc1c(Nc2nc3c(C(N)=S)c(N)sc3s2)c(=O)n(-c2ccccc2)n1C [Compound 3d, 5-Amino-2-((1,5-dimethyl-3-oxo-2-phenyl-2,3-dihydro-1H-pyrazol-4-yl)amino) thieno[3,2-d]thiazole-6-carbothioamide] | 71.8 µM (≈ 29.9 µg/mL) | 132 µM (≈ 55.1 µg/mL) | 121 µM (≈ 50.6 µg/mL) | 13 ± 0.95 mm | 16.91 ± 0.01 µM | 18.19 ± 0.01 µM | 118 µM (≈ 49.1 µg/mL) | 20 ± 0.19 mm | 75.5 µM (≈ 31.4 µg/mL) | 16 ± 0.28 mm | 16.2 µM (≈ 6.74 µg/mL) | 18 ± 0.13 mm | 22 ± 0.11 mm | 19 ± 0.45 mm | 28 ± 0.45 mm | 297 to 299 °C | 22 ± 0.14 mm | 67 µM (≈ 27.9 µg/mL) | 181 µM (≈ 75.4 µg/mL) | 
C[C@@H]1[C@H](O)[C@@H](C)/C=C/C=C/C=C/C=C/C=C/C=C/C=C/[C@H](O[C@@H]2O[C@H](C)[C@@H](O)[C@H](N)[C@@H]2O)C[C@@H]2O[C@](O)(C[C@@H](O)C[C@@H](O)[C@H](O)CC[C@@H](O)C[C@@H](O)CC(=O)O[C@H]1C)C[C@H](O)[C@H]2C(=O)O [Amphotericin B, reference compound] |  | 67.8 µM (≈ 62.7 µg/mL) |  |  |  |  | 39.1 µM (≈ 36.2 µg/mL) |  |  |  |  |  |  |  |  |  |  |  |  | zone of inhibition at 500 µg/mL (C. albicans ATCC 10231 [8]; ATCC10231, well diffusion agar, 0.5 mg/mL, read-out: Mean diameter of inhibition zone (mean ± SEM) C. albicans ATCC 10231): 20 ± 0.78 mm; zone of inhibition at 500 µg/mL (A. fumigatus RCMB 02568 [12]; RCMB02568, well diffusion agar, 0.5 mg/mL, read-out: Mean diameter of inhibition zone (mean ± SEM) A. fumigatus RCMB 02568): 22 ± 0.72 mm
COc1cccc2c1C(=O)c1c(O)c3c(c(O)c1C2=O)C[C@@](O)(C(=O)CO)C[C@@H]3O[C@H]1C[C@H](N)[C@H](O)[C@H](C)O1 [Doxorubicin, doxorubicin, reference compound] |  |  |  |  | 5.66 ± 0.01 µM | 4.62 ± 0.01 µM |  |  |  |  |  |  |  |  |  |  |  |  |  | 
Cc1c(Nc2nc3c(s2)sc(=S)n3-c2ccccc2)c(=O)n(-c2ccccc2)n1C [Compound 5a, 1,5-Dimethyl-2-phenyl-4-((4-phenyl-5-thioxo-4,5-dihydrothiazolo[4,5-d]thiazol-2-yl)amino)-1H-pyrazol-3(2H)-one] |  |  | 44.7 µM (≈ 20.2 µg/mL) | 21.2 ± 0.25 mm | 65.19 ± 0.02 µM | 73.8 ± 0.04 µM | 197 µM (≈ 89.2 µg/mL) |  | 183 µM (≈ 82.8 µg/mL) |  |  | 23 ± 0.05 mm | 13 ± 0.43 mm | 9 ± 0.53 mm |  | 201 to 203 °C |  |  | 63.6 µM (≈ 28.7 µg/mL) | 
Cc1c(Nc2nc3c(C#N)c(N)sc3s2)c(=O)n(-c2ccccc2)n1C [Compound 3a, 5-Amino-2-((1,5-dimethyl-3-oxo-2-phenyl-2,3-dihydro-1H-pyrazol-4-yl)amino)thieno [3,2-d]thiazole-6-carbonitrile] | 19.4 µM (≈ 7.4 µg/mL) | 186 µM (≈ 71.2 µg/mL) | 125 µM (≈ 47.9 µg/mL) | 28 ± 0.15 mm | 25.72 ± 0.03 µM | 27.58 ± 0.01 µM | 120 µM (≈ 45.9 µg/mL) | 22 ± 0.44 mm | 185 µM (≈ 70.8 µg/mL) | 12 ± 0.51 mm | 58.9 µM (≈ 22.5 µg/mL) | 17 ± 0.95 mm | 13 ± 0.76 mm | 18 ± 0.25 mm | 21 ± 0.69 mm | > 300 °C | 25 ± 0.15 mm | 40.5 µM (≈ 15.5 µg/mL) | 16.9 µM (≈ 6.44 µg/mL) | MIC C. albicans ATCC 10231 (C. albicans ATCC 10231 [2]; two-fold serial dilution): completely lost; MIC A. fumigatus RCMB 02568 (A. fumigatus RCMB 02568 [5]; two-fold serial dilution): completely lost; fold more potency than streptomycin, S. pneumoniae (S. pneumoniae 010010 [9]; from MIC): 1.1 folds; fold more potency than streptomycin, P. aeruginosa (P. aeruginosa [15]; from MIC): 1.6 folds
Cc1c(Nc2nc3c(s2)sc(=S)n3C)c(=O)n(-c2ccccc2)n1C [Compound 5c, 1,5-Dimethyl-4-((4-methyl-5-thioxo-4,5-dihydrothiazolo[4,5-d]thiazol-2-yl)amino)-2-phenyl-1H-pyrazol-3(2H)-one] | 20.8 µM (≈ 8.08 µg/mL) | 79.4 µM (≈ 30.9 µg/mL) | 125 µM (≈ 48.8 µg/mL) | 20 ± 0.08 mm | 11.85 ± 0.03 µM | 14.69 ± 0.03 µM | 17.8 µM (≈ 6.95 µg/mL) | 22 ± 0.48 mm | 18.9 µM (≈ 7.35 µg/mL) | 19 ± 0.23 mm | 178 µM (≈ 69.4 µg/mL) | 17 ± 0.78 mm | 24 ± 0.89 mm | 26 ± 0.17 mm | 15 ± 0.86 mm | 189 to 191 °C | 25 ± 0.1 mm | 62.2 µM (≈ 24.2 µg/mL) | 68.8 µM (≈ 26.8 µg/mL) | 
